According to patent US11827628B2, “Compositions and methods for inhibition of the JAK pathway” (Rigel Pharmaceuticals, Inc., priority 2005, dated 2023):

System: up-regulation of ICAM-1 (CD54) by IFNγ in A549 lung epithelial cells
Test: A549 Epithelial Line Stimulated with IFNγ (ICAM-1 surface expression, FACS)
Assay type: cell-based, human
Settings: A549 epithelial line stimulated with IFNγ; ICAM-1 expression by FACS; read-out: IC50, Example 43
Summary of the method: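 A549 cells pre-incubated 1 h with compound (30 μM to 14 nM, 5% FBS, 0.3% DMSO), then stimulated with IFNγ (75 ng/mL) for 24 h. Surface ICAM-1 stained with APC anti-CD54 and read by flow cytometry; geometric mean of live-gated events plotted against concentration for EC50.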

Row | IC50 | Structure (SMILES)
1 | 12.3 µM | Cc1ccc(Nc2ncc(F)c(Nc3ccc(CC#N)cc3)n2)cc1S(N)(=O)=O [III-7, N2-(3-Aminosulfonyl-4-methyl)phenyl-N4-(4-cyanomethyl)phenyl-5-fluoro-2,4-pyrimidinediamine]
2 | 14.7 µM | CCN(CC)CCNS(=O)(=O)c1cccc(Nc2ncc(F)c(Nc3ccc(OCc4cc(C)on4)c(C)c3)n2)c1 [Compound I-244, N2-[3-(2-N,N-Diethylaminoethyl)aminosulfonylphenyl)-5-fluoro-N4-[3-methyl-4-(5-methylisoxazol-3-yl)methyleneoxyphenyl]-2,4-pyrimidinediamine]
3 | 7.51 µM | Cc1noc(COc2ccc(Nc3nc(Nc4ccc(C)c(S(N)(=O)=O)c4)ncc3F)cc2)n1 [Compound I-259, N2-(3-Aminosulfonyl-4-methylphenyl)-5-fluoro-N4-[4-(3-methyl-1,2,4-oxadiazol-5-yl)methyleneoxyphenyl]-2,4-pyrimidinediamine]
